This passage reports IC50 and EC50 results from patent US12325697B2 (Nimbus Clio, Inc., priority 2021, dated 2025).

Like-named read-outs stand apart in the source and are kept apart here.

For test [1], the target named is Recombinant human Cbl-b (aa 36-427) (Homo sapiens (Human), UniProt Q13191). As to the kind of experiment: Cbl-b Biochemical Assay (TR-FRET). As to conditions: read-out: TR-FRET hCbl-b IC50. Summed up:
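Two-step TR-FRET: 6 nM biotinylated Cbl-b preincubated 30-60 min with compound, then 60 min at RT with 1-2.5 nM Src-Zap70 and 0.5 mM ATP in HEPES pH 7.0 buffer, 1% DMSO. Stopped with 5 mM EDTA plus 100 nM UBE2D2-Ub-FL-BODIPY and 1 nM streptavidin-Tb, 60 min; 520 nm signal; IC50 from 4-parameter fit.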
A general note: In TR-FRET formats the signal depends on donor and acceptor labels being close together.

The test system of test [2] is Jurkat (clone E6-1) cells, NFAT luciferase reporter. As to the kind of experiment: Jurkat Reporter Assay (NFAT Luciferase). Type of test: cell-based. As to conditions: Homo sapiens. A general note: Reporter assays use an easily measured gene product as a stand-in for the process of interest.
Test [3] has as its system Phospho-Zap70 (Y-319) in Jurkat wild-type (clone E6-1) cells. As to the kind of experiment: Jurkat pZAP70 HTRF Assay. In kind it is cell-based. The note with it: Homo sapiens.
[4] abbreviates: anti-CD3 stimulation, 6 hr, read-out: Jurkat NFAT EC50.
The mark [5] stands for this setting: anti-CD3 5 μg/ml, 3 hr, read-out: ZAP70 Jurkat EC50.

Sequence of Recombinant human Cbl-b (aa 36-427) (Q13191 36-427): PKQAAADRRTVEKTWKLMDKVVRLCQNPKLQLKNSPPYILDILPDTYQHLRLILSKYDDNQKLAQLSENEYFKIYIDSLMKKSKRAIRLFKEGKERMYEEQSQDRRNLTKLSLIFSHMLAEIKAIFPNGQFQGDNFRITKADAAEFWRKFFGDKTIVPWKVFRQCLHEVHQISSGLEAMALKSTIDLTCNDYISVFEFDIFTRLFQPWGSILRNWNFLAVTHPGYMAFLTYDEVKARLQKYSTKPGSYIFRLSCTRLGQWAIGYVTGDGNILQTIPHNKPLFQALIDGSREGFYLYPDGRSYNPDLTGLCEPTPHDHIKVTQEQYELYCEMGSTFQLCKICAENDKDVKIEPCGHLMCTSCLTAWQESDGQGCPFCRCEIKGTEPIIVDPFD

On to `Cn1cnnc1-c1cc(C#N)ccc1-c1cc(C2CC2)nc(N2Cc3ccc(CNCCOC(F)(F)F)cc3C2=O)c1` [AGT-3, 4-{2-Cyclopropyl-6-[1-oxo-6-({[2-(trifluoromethoxy)ethyl]amino}methyl)-3H-isoindol-2-yl]pyridin-4-yl}-3-(4-methyl-1,2,4-triazol-3-yl)benzonitrile], for which the IC50 (in general, the concentration at which inhibition is half-maximal) in test [1] is not above 200 nM. For the same compound, the EC50 in test [2] (setting [4]) and in test [3] (setting [5]) was less than 0.2 µM throughout.
On to `Cn1cnnc1-c1cc(F)ccc1-c1cc(C2CC2)nc(N2Cc3ccc(CO)cc3C2=O)c1` [AGH-2, 2-{6-Cyclopropyl-4-[4-fluoro-2-(4-methyl-1,2,4-triazol-3-yl)phenyl]pyridin-2-yl}-6-(hydroxymethyl)-3H-isoindol-1-one], for which the IC50 in test [1] is not above 200 nM. Moreover, the figures for the EC50 in test [2] (setting [4]) and in test [3] (setting [5]) were less than 0.2 µM and 1 to 10 µM, respectively.
Taken in the same sequence, the figures for `Cn1cnnc1-c1cc(F)ccc1-c1cc(C2CC2)nc(N2Cc3c(cc(CO)cc3C(F)(F)F)C2=O)c1` [AFK-1, 2-{6-Cyclopropyl-4-[4-fluoro-2-(4-methyl-1,2,4-triazol-3-yl)phenyl]pyridin-2-yl}-6-(hydroxymethyl)-4-(trifluoromethyl)-3H-isoindol-1-one] were not above 200 nM, less than 0.2 µM and less than 0.2 µM.
On to `CCNc1cc(-c2ccc(F)cc2-c2nncn2C)cc(N2Cc3c(cc(CO[C@@H]4CCC[C@@H]4O)cc3C(F)(F)F)C2=O)n1` [AFZ-1, 2-[6-(Ethylamino)-4-[4-fluoro-2-(4-methyl-1,2,4-triazol-3-yl)phenyl]pyridin-2-yl]-6-({[(1R,2S)-2-hydroxycyclopentyl]oxy}methyl)-4-(trifluoromethyl)-3H-isoindol-1-one], for which, in test [1], the IC50 was not above 200 nM. Besides, the EC50 (usually the concentration giving half of the maximal effect) in test [2] (setting [4]) was less than 0.2 µM; in test [3] (setting [5]), 0.2 to 1 µM.
The like results for `Cn1cnnc1-c1cnn(C)c1-c1cc(C2CC2)nc(N2Cc3c(cc(CO[C@H]4CCC[C@H]4O)cc3C(F)(F)F)C2=O)c1` [AGA-1, 2-{6-Cyclopropyl-4-[2-methyl-4-(4-methyl-1,2,4-triazol-3-yl)pyrazol-3-yl]pyridin-2-yl}-6-({1[(1R,2S)-2-hydroxycyclopentyl]oxy}methyl)-4-(trifluoromethyl)-3H-isoindol-1-one] were, in that order, not above 200 nM, less than 0.2 µM and 0.2 to 1 µM.
The like results for `CN1CC[C@@H](COCc2cc3c(c(C(F)(F)F)c2)CN(c2cc(-c4ccc(F)cc4-c4nncn4C)cc(C4CC4)n2)C3=O)C1` [AHI-4, 2-{6-Cyclopropyl-4-[4-fluoro-2-(4-methyl-1,2,4-triazol-3-yl)phenyl]pyridin-2-yl}-6-({[(3R)-1-methylpyrrolidin-3-yl]methoxy}methyl)-4-(trifluoromethyl)-3H-isoindol-1-one] were, in that order, not above 200 nM, less than 0.2 µM and 0.2 to 1 µM.
`CCNc1cc(-c2ccc(C#N)cc2-c2nncn2C)cc(N2Cc3c(cc(CNC4CCCC4=O)cc3C(F)(F)F)C2=O)n1` (stereo not drawn) [AGC-5, 4-[2-(Ethylamino)-6-(1-oxo-6-{[(2-oxocyclopentyl)amino]methyl}-4-(trifluoromethyl)-3H-isoindol-2-yl)pyridin-4-yl]-3-(4-methyl-1,2,4-triazol-3-yl)benzonitrile]: the IC50 in test [1] was not above 200 nM. The concentration giving a half-maximal response (EC50) is less than 0.2 µM in test [2] (setting [4]) and 0.2 to 1 µM in test [3] (setting [5]).
Taken in the same sequence, the figures for `Cn1cnnc1-c1ccccc1-c1cccc(N2Cc3c(cc(CNCC4(O)CCC4)cc3C(F)(F)F)C2=O)c1` [AW-2, 6-((((1-Hydroxycyclobutyl)methyl)amino)methyl)-2-(2′-(4-methyl-4H-1,2,4-triazol-3-yl)-[1,1′-biphenyl]-3-yl)-4-(trifluoromethyl)isoindolin-1-one] were not above 200 nM, less than 0.2 µM and less than 0.2 µM.
With `CCNc1cc(-c2ccc(F)cc2-c2nncn2C)cc(N2Cc3c(cc(COCCOC)cc3C(F)(F)F)C2=O)n1`, the EC50 in test [2] (6 h, read-out: Jurkat NFAT EC50 (μM)) was less than 0.2 µM; in test [3] (3 h, read-out: ZAP70 Jurkat EC50 (μM)), 0.2 to 1 µM.
Regarding `CCNc1cc(-c2c(-c3nncn3C)cnn2C)cc(N2Cc3c(cc(COCC4(F)CCC4)cc3C(F)(F)F)C2=O)n1` [AFP-2, 2-[6-(Ethylamino)-4-[2-methyl-4-(4-methyl-1,2,4-triazol-3-yl)pyrazol-3-yl]pyridin-2-yl]-6-{[(1-fluorocyclobutyl)methoxy]methyl}-4-(trifluoromethyl)-3H-isoindol-1-one], in test [1], the IC50 is not above 200 nM. Also, the EC50 in test [2] (setting [4]) was 0.2 to 1 µM.
Regarding `CCNc1cc(-c2c(-c3nncn3C)cnn2C)cc(N2Cc3c(cc(CN(C)CC4(OC)CCC4)cc3C(F)(F)F)C2=O)n1` [AEK-3, 2-(6-(Ethylamino)-4-(1-methyl-4-(4-methyl-4H-1,2,4-triazol-3-yl)-1H-pyrazol-5-yl)pyridin-2-yl)-6-((((1-methoxycyclobutyl)methyl)(methyl)amino)methyl)-4-(trifluoromethyl)isoindolin-1-one], the IC50 in test [1] was not above 200 nM. Besides, in test [2] (setting [4]), the EC50 fell in the range of 0.2 to 1 µM.
As to `Cn1cnnc1-c1cc(C#N)ccc1-c1cccc(N2Cc3c(cc(CNCCO)cc3C(F)(F)F)C2=O)c1` [AEA-2, 3′-(6-{[(2-Hydroxyethyl)amino]methyl}-1-oxo-4-(trifluoromethyl)-3H-isoindol-2-yl)-2-(4-methyl-1,2,4-triazol-3-yl)-[1,1′-biphenyl]-4-carbonitrile], the IC50 in test [1] was not above 200 nM. In test [2] (setting [4]), the EC50 was 1 to 10 µM.
On to `CCNc1cc(-c2ccc(C(=O)OC)cc2-c2nncn2C)cc(N2Cc3c(cccc3C(F)(F)F)C2=O)n1` [AFC-1, Methyl 4-[2-(ethylamino)-6-[1-oxo-4-(trifluoromethyl)-3H-isoindol-2-yl]pyridin-4-yl]-3-(4-methyl-1,2,4-triazol-3-yl) benzoate], for which, in test [1], the IC50 lay in the range of 1000 to 10000 nM. In addition, the EC50 in test [2] (setting [4]) was 10 to 50 µM.
`C[C@H](Cc1nncn1C)c1cc(Cl)nc(N2Cc3c(cccc3C(F)(F)F)C2=O)c1` [AHJ-11, (R)-2-(6-Chloro-4-(1-(4-methyl-4H-1,2,4-triazol-3-yl)propan-2-yl)pyridin-2-yl)-4-(trifluoromethyl)isoindolin-1-one]: the IC50 in test [1] was in the range of 1000 to 10000 nM. The EC50 in test [2] (setting [4]) is 10 to 50 µM.
Taken in the same sequence, the figures for `CCOc1cc(-c2ccc(C#N)cc2-c2nncn2C)cc(N2Cc3c(cc(COCCNC)cc3C(F)(F)F)C2=O)n1` [AHE-4] were not above 200 nM and 1 to 10 µM.
Regarding `Cn1cnnc1-c1cc(C#N)ccc1-c1cc(C2CC2)nc(N2Cc3c(cc(COCCO)cc3C(F)(F)F)C2=O)c1` [AHF-4, 4-(2-Cyclopropyl-6-{6-[(2-hydroxyethoxy)methyl]-1-oxo-4-(trifluoromethyl)-3H-isoindol-2-yl}pyridin-4-yl)-3-(4-methyl-1,2,4-triazol-3-yl)benzonitrile], the IC50 in test [1] is not above 200 nM. The EC50 in test [2] (setting [4]) was less than 0.2 µM.
The like results for `Cn1cnnc1-c1cc(C(N)=O)ccc1-c1cccc(N2Cc3c(cc(CO)cc3C(F)(F)F)C2=O)c1` [ADK-1, 3′-[6-(Hydroxymethyl)-1-oxo-4-(trifluoromethyl)-3H-isoindol-2-yl]-2-(4-methyl-1,2,4-triazol-3-yl)-[1,1′-biphenyl]-4-carboxamide] were, in that order, 1000 to 10000 nM and 10 to 50 µM.
The like results for `CCNc1cc(-c2c(-c3nncn3C)cnn2C)cc(N2Cc3c(cc(CNCCOCCOCCOCCNC(=O)CCc4ccc5n4[B-](F)(F)[N+]4=C(c6ccc[nH]6)C=CC4=C5)cc3C(F)(F)F)C2=O)n1` [ACZ-5] were, in that order, not above 200 nM and 10 to 50 µM.
The like results for `O=C1c2cc(CNCC3(O)CCC3)cc(C(F)(F)F)c2CN1c1ccccc1` [AX-3, 6-((((1-Hydroxycyclobutyl)methyl)amino)methyl)-2-phenyl-4-(trifluoromethyl)isoindolin-1-one] were, in that order, 10000 to 50000 nM and 10 to 50 µM.
In the case of `Cn1cnnc1-c1cc(C#N)ccc1-c1cccc(N2Cc3c(cc(CN[C@@H]4CCC[C@@H]4O)cc3C(F)(F)F)C2=O)c1` [BE-3, 3′-(6-((((1R,2S)-2-Hydroxycyclopentyl)amino)methyl)-1-oxo-4-(trifluoromethyl)isoindolin-2-yl)-2-(4-methyl-4H-1,2,4-triazol-3-yl)-[1,1′-biphenyl]-4-carbonitrile], the IC50 in test [1] is not above 200 nM. Moreover, the EC50 in test [2] (setting [4]) is less than 0.2 µM.
Taken in the same sequence, the figures for `Cn1cnnc1-c1cc(C#N)ccc1-c1ccnc(N2Cc3c(cc(CO)cc3C(F)(F)F)C2=O)c1` [AEX-2, 4-{2-[6-(Hydroxymethyl)-1-oxo-4-(trifluoromethyl)-3H-isoindol-2-yl]pyridin-4-yl}-3-(4-methyl-1,2,4-triazol-3-yl) benzonitrile] were not above 200 nM and 1 to 10 µM.
The like results for `CCNc1cc(-c2cc(C#N)ccc2-c2nncn2C)cc(N2Cc3c(cccc3C(F)(F)F)C2=O)n1` [ADS-6, 3-[2-(Ethylamino)-6-[1-oxo-4-(trifluoromethyl)-3H-isoindol-2-yl]pyridin-4-yl]-4-(4-methyl-1,2,4-triazol-3-yl)benzonitrile] were, in that order, not above 200 nM and 1 to 10 µM.
The like results for `CCNc1cc(-c2c(-c3nncn3C)cnn2C)cc(N2Cc3c(cc(COCC(C)(C)O)cc3C(F)(F)F)C2=O)n1` [ADY-2, 2-[6-(Ethylamino)-4-[2-methyl-4-(4-methyl-1,2,4-triazol-3-yl)pyrazol-3-yl]pyridin-2-yl]-6-[(2-hydroxy-2-methylpropoxy)methyl]-4-(trifluoromethyl)-3H-isoindol-1-one] were, in that order, not above 200 nM and 0.2 to 1 µM.
